Experimental data from publication PMC12693167, “Design, Synthesis and Anticancer Activity of 6-Substituted-1-(3,4,5-trimethoxyphenyl)-1H-indole Against Tubulin Polymerisation” (Molecules, 2025).

Tests used:
[1] = target: T1, purified porcine brain tubulin (Sus scrofa, UniProt P02554); experiment: Biolayer interferometry (BLI) binding to tubulin; conditions: immobilized tubulin, 1:1 binding model, mean ± SD, triplicate
T1 construct: purified porcine brain tubulin; from tissue; host or cells: porcine brain
T1 sequence (P02554 whole entry): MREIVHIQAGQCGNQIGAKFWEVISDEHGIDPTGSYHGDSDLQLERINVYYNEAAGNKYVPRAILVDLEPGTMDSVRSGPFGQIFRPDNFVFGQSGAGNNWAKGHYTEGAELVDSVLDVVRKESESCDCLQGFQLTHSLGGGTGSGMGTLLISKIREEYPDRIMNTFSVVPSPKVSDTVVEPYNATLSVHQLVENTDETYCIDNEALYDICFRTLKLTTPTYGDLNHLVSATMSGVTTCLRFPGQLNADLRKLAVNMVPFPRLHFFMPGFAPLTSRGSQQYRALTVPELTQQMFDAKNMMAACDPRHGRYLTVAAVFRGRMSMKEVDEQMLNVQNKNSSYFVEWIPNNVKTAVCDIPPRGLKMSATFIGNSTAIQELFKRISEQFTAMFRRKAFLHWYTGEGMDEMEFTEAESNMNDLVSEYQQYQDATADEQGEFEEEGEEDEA
T1 sequence (P02550 whole entry partner): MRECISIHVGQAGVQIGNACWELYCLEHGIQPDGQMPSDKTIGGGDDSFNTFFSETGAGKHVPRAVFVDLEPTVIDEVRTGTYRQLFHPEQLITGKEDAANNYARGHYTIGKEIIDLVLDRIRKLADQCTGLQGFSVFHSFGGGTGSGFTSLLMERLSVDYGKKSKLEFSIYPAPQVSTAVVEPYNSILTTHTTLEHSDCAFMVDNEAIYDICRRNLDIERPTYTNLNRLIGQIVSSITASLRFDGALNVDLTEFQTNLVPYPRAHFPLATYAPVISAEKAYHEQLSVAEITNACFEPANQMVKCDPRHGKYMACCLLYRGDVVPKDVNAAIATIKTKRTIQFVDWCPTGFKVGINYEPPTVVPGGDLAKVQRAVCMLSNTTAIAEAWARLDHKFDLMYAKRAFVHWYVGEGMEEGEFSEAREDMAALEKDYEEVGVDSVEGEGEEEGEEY
Description: To detect the direct interaction between the synthesized compounds and tubulin, biolayer interferometry (BLI) experiments were performed using purified porcine brain tubulin immobilized on Super Streptavidin (SSA) biosensor [30]. […] Association and dissociation kinetics were monitored in real time, and equilibrium dissociation constants (KD) were determined by global fitting of the sensorgrams to a 1:1 binding model. All measurements were conducted in triplicate, and results are reported as mean ± SD.
BLI assays were performed on an Octet RED96 instrument (FortéBio, Pall Life Sciences, Menlo Park, CA, USA) at 25 °C in PBS buffer supplemented with 0.02% (v/v) Tween-20 as the running buffer. Biotinylated tubulin proteins (3 μg/mL) were immobilized onto Super Streptavidin (SSA) biosensors. Association and dissociation were monitored for 60 s each. […] Reference subtraction was performed using sensors incubated in running buffer without protein loading to correct for baseline drift. Data were analyzed using Octet Data Analysis software (version 9.0), and equilibrium dissociation constants (KD) were determined by fitting the curves to a 1:1 binding model. All measurements were performed in triplicate, and results are reported as mean ± SD.
BLI assays were performed on an Octet RED96 instrument (FortéBio, Pall Life Sciences) at 25 °C in PBS buffer supplemented with 0.02% (v/v) Tween-20 as the running buffer. Biotinylated tubulin proteins (3 μg/mL) were immobilized onto Super Streptavidin (SSA) biosensors. Association and dissociation were monitored for 60 s […]
Reference subtraction was performed using sensors incubated in running buffer without protein loading to correct for baseline drift. Data were analyzed using Octet Data Analysis software (version 9.0), and equilibrium dissociation constants (KD) were determined by fitting the curves to a 1:1 binding model. All measurements were performed in triplicate, and results are reported as mean ± SD.

[2] = system: MCF-7 cells; experiment: CCK-8 antiproliferative assay, MCF-7; assay type: cell-based; conditions: Homo sapiens, MCF7; cell viability (CCK-8), 48 h
Description: (§1) To evaluate the anticancer potential of the synthesized compounds, a panel of six human and murine cancer cell lines representing different tissue origins was selected, including MCF-7 (human breast adenocarcinoma), MDA-MB-231 (human triple-negative breast cancer), A549 (human non-small cell lung cancer), HeLa (human cervical cancer), A375 (human melanoma), and B16-F10 (murine melanoma) (Table 2). […] DMSO was used as the vehicle control, and all experiments were performed in triplicate to ensure reproducibility.
(§2) Human breast cancer cells (MCF-7), human lung cancer cells (A549), human cervical cancer cells (HeLa), human triple-negative breast cancer cells (MDA-MB-231), and human malignant melanoma cells (A375) were cultured in DMEM. Mouse melanoma cells (B16F10) were maintained in RPMI-1640 medium. All media were supplemented with 10% fetal bovine serum and 1% penicillin-streptomycin (Life Technologies, Carlsbad, CA, USA) and maintained at 37 °C in a humidified atmosphere with 5% CO2.
(§3) The cytotoxicity of the test compounds was evaluated against MCF-7, A549, HeLa, MDA-MB-231, A375, and B16F10 using the CCK-8 assay. Cells were seeded into 96-well plates at a density of 5000 cells/well. After removing the medium, 100 μL of medium with 0.1% DMSO containing test compounds at different concentrations was added to each well and incubated at 37 °C for another 48 h. The CCK-8 solution was added and incubated for another 1 h, and then, the absorbance was detected with a microplate reader at a wavelength of 450 nm. The IC50 values were calculated by nonlinear regression analysis using GraphPad Prism 8.0.2. All the experiments were repeated at least three times.

[3] = system: MDA-MB-231 cells; experiment: CCK-8 antiproliferative assay, MDA-MB-231; assay type: cell-based; conditions: Homo sapiens, cell viability (CCK-8), 48 h
Description: as §1, §2, §3

[4] = system: A549 cells; experiment: CCK-8 antiproliferative assay, A549; assay type: cell-based; conditions: Homo sapiens, cell viability (CCK-8), 48 h
Description: as §1, §2, §3

[5] = system: HeLa cells; experiment: CCK-8 antiproliferative assay, HeLa; assay type: cell-based; conditions: Homo sapiens, cell viability (CCK-8), 48 h
Description: as §1, §2, §3

[6] = system: A375 cells; experiment: CCK-8 antiproliferative assay, A375; assay type: cell-based; conditions: Homo sapiens, A-375; cell viability (CCK-8), 48 h
Description: as §1, §2, §3

[7] = system: B16-F10 cells; experiment: CCK-8 antiproliferative assay, B16-F10; assay type: cell-based, murine; conditions: Mus musculus, cell viability (CCK-8), 48 h
Description: as §1, §2, §3

[8] = target: T2, Porcine brain tubulin protein (Sus scrofa, UniProt P02554); experiment: In vitro tubulin polymerization assay; assay type: biochemical; conditions: read-out: IC50, inhibitory effect on tubulin polymerization
T2 construct: Porcine brain tubulin protein was dissolved in EM buffer; from tissue; host or cells: porcine brain
T2 sequence (P02554 whole entry): as the sequence (P02554 whole entry) above
T2 sequence (P02550 whole entry partner): as the sequence (P02550 whole entry partner) above
Description: The ability of compound 3g to disrupt microtubule dynamics was assessed using an in vitro tubulin polymerization assay.
Porcine brain tubulin protein was dissolved in EM buffer containing 5% glycerol (80 mM PIPES, 2 mM GTP, 2 mM MgCl2, and 0.5 mM EGTA, pH 6.9). Compounds were diluted in EM buffer to final concentrations of 50, 25, 10, 5, and 2.5 μM and added to a pre-warmed 384-well plate, followed by pre-incubation at 37 °C. Subsequently, 14 μL of the tubulin-GTP mixture was added to each well containing the test compounds. Tubulin polymerization was monitored by measuring absorbance at 340 nm every minute for 60 min. […] Each assay was performed in triplicate.
Absorbance at 340 nm was determined every 1 min.

SMILES | KD [1] | Kd [1] [µM] | IC50 [2] [µM] | IC50 [3] [µM] | IC50 [4] [µM] | IC50 [5] [µM] | IC50 [6] [µM] | IC50 [7] [µM] | IC50 [8] [µM]
COc1cc(-n2ccc3ccc(-c4ccc(SC)cc4)cc32)cc(OC)c1OC [3j, 6-(4-(methylthio)phenyl)-1-(3,4,5-trimethoxyphenyl)-1H-indole] | undetectable binding | > 200 | > 100 | > 100 | > 100 | > 100 | > 100 | > 100 | 
COc1cc(-n2ccc3ccc(-c4ccc(C(C)C)cc4)cc32)cc(OC)c1OC [3k, 6-(4-isopropylphenyl)-1-(3,4,5-trimethoxyphenyl)-1H-indole] | undetectable binding | > 200 | > 100 | > 100 | > 100 | > 100 | > 100 | > 100 | 
COc1cc(-n2ccc3ccc(-c4ccccc4C#N)cc32)cc(OC)c1OC [3l, 2-(1-(3,4,5-trimethoxyphenyl)-1H-indol-6-yl)benzonitrile] | low micromolar range | 26 ± 3.38 | > 100 | > 100 | > 100 | > 100 | > 100 | > 100 | 
COc1cc(-n2ccc3ccc(-c4ccc(C#N)cc4)cc32)cc(OC)c1OC [3m, 4-(1-(3,4,5-trimethoxyphenyl)-1H-indol-6-yl)benzonitrile] | undetectable binding | > 200 | > 100 | > 100 | > 100 | > 100 | > 100 | > 100 | 
COc1cc(-n2ccc3ccc(-c4ccc(C#N)cc4F)cc32)cc(OC)c1OC [3n, 3-fluoro-4-(1-(3,4,5-trimethoxyphenyl)-1H-indol-6-yl)benzonitrile] |  | 220 ± 30.8 | 14.2 ± 0.51 | 41.4 ± 1.21 | 48 ± 2.56 | 65 ± 3.2 | 16.1 ± 0.38 | 68.9 ± 3.17 | 
COc1cc(-n2ccc3ccc(-c4ccc(Oc5ccccc5)cc4)cc32)cc(OC)c1OC [3o, 6-(4-Phenoxyphenyl)-1-(3,4,5-trimethoxyphenyl)-1H-indole] |  | 31 ± 3.41 | > 100 | > 100 | > 100 | > 100 | > 100 | > 100 | 
COc1cc(-n2ccc3ccc(-c4nc5ccccc5s4)cc32)cc(OC)c1OC [3p, 2-(1-(3,4,5-trimethoxyphenyl)-1H-indol-6-yl)benzo[d]thiazole] | undetectable binding | > 200 | > 100 | > 100 | > 100 | > 100 | > 100 | > 100 | 
COc1cc(-n2ccc3ccc(Cl)cc32)cc(OC)c1OC [H1] |  |  |  |  |  |  |  |  | 101
